This note sets out measurements from PubChem BioAssay (NCI).

The structures appear in SMILES notation.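 Step 1: Grow cells in 96-well plates. Step 2: Expose to compound for 48 hours at 5 concentrations. Step 3: Interpolate endpoints linearly; if unreached, use highest concentration. GI50 is the concentration that inhibits growth by half. TGI marks complete inhibition of growth.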

Among the test systems are 786-0 renal; NCI-H226 lung; SK-OV-3 ovarian; SK-MEL-5 melanoma; OVCAR-8 ovarian; UACC-257 melanoma; HCC-2998 colon; OVCAR-5 ovarian; BT-549 breast; SK-MEL-2 melanoma.
What all share (experiment): DTP human tumour cell line panel, 48 h

Regarding `C/C(=N\NC(=O)c1ccncc1)c1sc(-n2nc(-c3ccccc3)cc2-c2ccccc2)nc1C`, the TGI (as a rule, the concentration giving total growth inhibition) is above 31.6 µM in the assay with 786-0 renal; above 100 µM in the assay with NCI-H226 lung; above 31.6 µM in the assay on SK-OV-3 ovarian; above 31.6 µM in the assay with SK-MEL-5 melanoma; above 100 µM in the assay on OVCAR-8 ovarian; above 31.6 µM in the assay on UACC-257 melanoma. In addition, the TGI in the assay on HCC-2998 colon, in the assay with OVCAR-5 ovarian, in the assay on BT-549 breast and with SK-MEL-2 melanoma was above 31.6 µM throughout.

Consider `CC1=CC(=O)N(c2cccc3c(N4C(=O)C=C(C)C4=O)cccc23)C1=O`, for which the GI50 – broadly, the concentration that inhibits growth by half – with 786-0 renal is 7.5 µM; in the assay on NCI-H226 lung, 23.1 µM; in the assay on SK-OV-3 ovarian, 53 µM; in the assay on SK-MEL-5 melanoma it was 15.5 µM; in the assay on OVCAR-8 ovarian it was 3.36 µM; with UACC-257 melanoma, 3.97 µM. Besides, the GI50 with HCC-2998 colon was 18.4 µM; with OVCAR-5 ovarian it was 8.35 µM; with BT-549 breast it was 6.44 µM; in the assay with SK-MEL-2 melanoma, 31.5 µM. In addition, the TGI with 786-0 renal was 23.5 µM; in the assay with NCI-H226 lung, above 63.8 µM; in the assay on SK-OV-3 ovarian, above 100 µM; in the assay with SK-MEL-5 melanoma, 36.3 µM; in the assay on OVCAR-8 ovarian, 16.5 µM; in the assay on UACC-257 melanoma, 25 µM. Besides, the TGI was 34.3 µM in the assay on HCC-2998 colon, 26.3 µM in the assay on OVCAR-5 ovarian, 19.5 µM with BT-549 breast and above 100 µM in the assay on SK-MEL-2 melanoma.

As for `CN1CCN(CCCNC(=O)c2c3c(n4ccccc24)C(=O)c2ncccc2C3=O)CC1`, the GI50 with 786-0 renal is 1.63 µM; in the assay on NCI-H226 lung, 2.67 µM; in the assay on SK-OV-3 ovarian it was 3.46 µM; with SK-MEL-5 melanoma it was 0.547 µM; in the assay with OVCAR-8 ovarian, 0.888 µM; with UACC-257 melanoma, 0.971 µM. The GI50 was 1.04 µM in the assay on HCC-2998 colon, 2.42 µM in the assay on OVCAR-5 ovarian, 7.24 µM in the assay on BT-549 breast and 2.67 µM with SK-MEL-2 melanoma. Besides, the TGI in the assay with 786-0 renal was determined as 22.3 µM; in the assay with NCI-H226 lung it was 14.1 µM; in the assay on SK-OV-3 ovarian, 19.6 µM; with SK-MEL-5 melanoma it was 1.54 µM; in the assay on OVCAR-8 ovarian, 5.99 µM; with UACC-257 melanoma, 2.3 µM. The concentration for total growth inhibition (TGI) was 4.07 µM with HCC-2998 colon, above 53.2 µM with OVCAR-5 ovarian, 20.6 µM with BT-549 breast and 11.4 µM with SK-MEL-2 melanoma.

Take `CCN(CC)CCNC(=O)c1cccc2c1-c1ccccc1C2=O`: the GI50 with 786-0 renal, with NCI-H226 lung, with SK-OV-3 ovarian, in the assay on SK-MEL-5 melanoma, in the assay with OVCAR-8 ovarian and in the assay on UACC-257 melanoma was above 100 µM each time. The GI50 in the assay with HCC-2998 colon, in the assay on OVCAR-5 ovarian, with BT-549 breast and in the assay with SK-MEL-2 melanoma was above 100 µM throughout. Further, the concentration for total growth inhibition (TGI) in the assay on 786-0 renal, in the assay on NCI-H226 lung, in the assay with SK-OV-3 ovarian, with SK-MEL-5 melanoma, in the assay on OVCAR-8 ovarian and in the assay on UACC-257 melanoma was above 100 µM throughout. In addition, the TGI in the assay on HCC-2998 colon, with OVCAR-5 ovarian, with BT-549 breast and in the assay on SK-MEL-2 melanoma was above 100 µM throughout.

For `COc1cc(-c2nn(-c3ccc(NC(=O)Nc4cc(C(F)(F)F)cc(C(F)(F)F)c4)cc3)cc2-c2ccncc2)ccc1Cl`, the GI50 with 786-0 renal is 2.48 µM; with NCI-H226 lung, 1.92 µM; in the assay on SK-OV-3 ovarian, 1.55 µM; with SK-MEL-5 melanoma, 1.53 µM; in the assay with OVCAR-8 ovarian, 2.48 µM; with UACC-257 melanoma, 2.3 µM. The GI50 was 2.21 µM in the assay on HCC-2998 colon, 1.91 µM with OVCAR-5 ovarian, 2.61 µM in the assay on BT-549 breast and 1.7 µM in the assay with SK-MEL-2 melanoma. Besides, the total growth inhibition concentration (TGI) with 786-0 renal came out at 6.39 µM; in the assay with NCI-H226 lung, 4.84 µM; with SK-OV-3 ovarian it was 3.09 µM; in the assay on SK-MEL-5 melanoma, 2.98 µM; in the assay with OVCAR-8 ovarian it was 27.8 µM; in the assay on UACC-257 melanoma, 7.73 µM. Further, the total growth inhibition concentration (TGI) stood at 5.38 µM in the assay on HCC-2998 colon, 5.16 µM with OVCAR-5 ovarian, 6.03 µM with BT-549 breast and 3.43 µM in the assay on SK-MEL-2 melanoma.

`COc1ccc(OC)c(Nc2nc3nonc3nc2Nc2cccc(Br)c2)c1`: the GI50 in the assay with 786-0 renal is 1.71 µM; in the assay on NCI-H226 lung, 0.588 µM; in the assay with SK-OV-3 ovarian it was 0.486 µM; with SK-MEL-5 melanoma, 0.297 µM; in the assay with OVCAR-8 ovarian it was 1.02 µM; in the assay with UACC-257 melanoma, 0.508 µM. Besides, the GI50 was 0.818 µM in the assay on HCC-2998 colon, 2.56 µM in the assay on OVCAR-5 ovarian, 0.537 µM in the assay on BT-549 breast and 0.509 µM with SK-MEL-2 melanoma. Further, the concentration for total growth inhibition (TGI) with 786-0 renal is 13.8 µM; with NCI-H226 lung it was 40.2 µM; in the assay on SK-OV-3 ovarian it was 4.1 µM; with SK-MEL-5 melanoma, 1.57 µM; with OVCAR-8 ovarian, above 100 µM; with UACC-257 melanoma, 7.37 µM. Also, the total growth inhibition concentration (TGI) in the assay on HCC-2998 colon is above 100 µM; with OVCAR-5 ovarian, above 100 µM; in the assay on BT-549 breast, 6.97 µM; in the assay on SK-MEL-2 melanoma it was 3.84 µM.
